ChEMBL document CHEMBL6074631, “Design, synthesis, and evaluation of pyranochromene derivatives as membrane targeting antibacterials against Gram-positive bacteria” (Bioorg Med Chem Lett, 2024)
≈ marks a conversion by molar mass, not a printed value. Calls of active or inactive are those of the source. The calls are words filed in the database; no cut-off is given here.

Key:
Staphylococcus aureus [1] = assay: Drug resistance, ratio of MIC for Staphylococcus aureus ATCC43300 after 18 passages exposure to MIC for Staphylococcus aureus ATCC43300 after first exposure; assay type: functional
Staphylococcus aureus [2] = assay: Antibacterial activity against Staphylococcus aureus ATCC25923 assessed as reduction in bacterial growth by broth microdilution assay; assay type: functional
Staphylococcus aureus [3] = assay: Antibacterial activity against Staphylococcus aureus ATCC31007 assessed as reduction in bacterial growth by broth microdilution assay; assay type: functional
Staphylococcus aureus [4] = assay: Antibacterial activity against […] Staphylococcus aureus ATCC43300 assessed as reduction in bacterial growth by broth microdilution assay; assay type: functional
Bacillus subtilis = assay: Antibacterial activity against […] Bacillus subtilis ATCC9372 assessed as reduction in bacterial growth by broth microdilution assay; assay type: functional
Enterococcus faecalis = assay: Antibacterial activity against penicillin-susceptible Enterococcus faecalis ATCC29212 assessed as reduction in bacterial growth by broth microdilution assay; assay type: functional
[5] = test system: Staphylococcus epidermidis; assay: Antibacterial activity against vancomycin-susceptible Staphylococcus epidermidis ATCC12228 assessed as reduction in bacterial growth by broth microdilution assay; assay type: functional
Klebsiella pneumoniae = assay: Antibacterial activity against erythromycin-susceptible Klebsiella pneumoniae ATCC10031 assessed as reduction in bacterial growth by broth microdilution assay; assay type: functional
Acinetobacter baumannii = assay: Antibacterial activity against Acinetobacter baumannii ATCC19606 assessed as reduction in bacterial growth by broth microdilution assay; assay type: functional
Escherichia coli = assay: Antibacterial activity against Escherichia coli ATCC25922 assessed as reduction in bacterial growth by broth microdilution assay; assay type: functional
Pseudomonas aeruginosa = assay: Antibacterial activity against penicillin-susceptible Pseudomonas aeruginosa ATCC27853 assessed as reduction in bacterial growth by broth microdilution assay; assay type: functional
[6] = Hemolytic activity in RBC (unknown origin) assessed as hemolysis; assay type: toxicity, cell-based
Staphylococcus aureus [7] = assay: Bactericidal activity against Staphylococcus aureus ATCC43300 at 2 to 16 ug/ml by time kill assay; assay type: functional, organism-based; details: dose 2-16 µg/ml, time <= 12.0 hrs
Staphylococcus aureus [8] = assay: Bactericidal activity against Staphylococcus aureus ATCC43300 measured upto 12 hrs by time kill assay; assay type: functional, organism-based; details: dose 2-16 µg/ml
Staphylococcus aureus [9] = assay: Bactericidal activity against Staphylococcus aureus ATCC43300 assessed as log reduction in CFU at 16 ug/ml by time kill assay; assay type: functional; details: dose 16 µg/ml
Staphylococcus aureus [10] = assay: Bactericidal activity against Staphylococcus aureus ATCC43300 assessed as reduction in bacterial count at 16 ug/ml measured within 4 hrs by time kill assay relative to control; assay type: functional; design: scale not given: the % may be the effect or the level left; details: dose 16 µg/ml
Staphylococcus aureus [11] = assay: Bactericidal activity against Staphylococcus aureus ATCC43300 assessed as eradication of bacterial cell at 16 ug/ml measured within 8 hrs by time kill assay relative to control; assay type: functional; details: dose 16 µg/ml
Staphylococcus aureus [12] = assay: Antibacterial activity against Staphylococcus aureus ATCC43300 measured after 20 passages; assay type: functional, organism-based
Staphylococcus aureus [13] = assay: Drug resistance, ratio of MIC for Staphylococcus aureus ATCC43300 after 20 passages exposure to MIC for Staphylococcus aureus ATCC43300 after first exposure; assay type: functional
Cell membrane [14] = assay: Disruption of cell membrane integrity in Staphylococcus aureus ATCC43300 assessed as red fluorescence by DAPI staining based fluorescence assay; assay type: subcellular
Cell membrane [15] = assay: Disruption of cell membrane integrity in Staphylococcus aureus ATCC43300 assessed as blue fluorescence by DAPI staining based fluorescence assay; assay type: subcellular
Cell membrane [16] = assay: Induction of cytoplasmic membrane depolarization in Staphylococcus aureus ATCC43300 assessed as fold increase in fluorescence signal at 16 ug/ml measured at 20 mins DiSC3(5) dye-based fluorescence assay; assay type: subcellular; details: dose 16.0 µg/ml
Cell membrane [17] = assay: Induction of cytoplasmic membrane depolarization in Staphylococcus aureus ATCC43300 assessed as fold increase in fluorescence signal measured upto 20 mins DiSC3(5) dye-based fluorescence assay; assay type: subcellular; details: dose 2-16 µg/ml
Cell membrane [18] = assay: Induction of cell membrane permeabilization in Staphylococcus aureus ATCC43300 assessed as increase in fluorescence intensity by propidium iodide dye-based fluorescence assay; assay type: subcellular; details: dose 2-16 µg/ml
Cell membrane [19] = assay: Induction of cell membrane permeabilization in Staphylococcus aureus ATCC43300 assessed as fold increase in fluorescence intensity at 16 ug/ml by propidium iodide dye-based fluorescence assay; assay type: subcellular; details: dose 16.0 µg/ml
Cell membrane [20] = assay: Induction of cell membrane disruption in Staphylococcus aureus ATCC43300 assessed as increase in protein leakage; assay type: subcellular; details: dose 2-16 µg/ml
Cell membrane [21] = assay: Induction of cell membrane disruption in Staphylococcus aureus ATCC43300 assessed as increase in DNA leakage; assay type: subcellular; details: dose 2-16 µg/ml
Cell membrane [22] = assay: Induction of cell membrane disruption in Staphylococcus aureus ATCC43300 assessed as fold increase in protein leakage at 16 ug/ml; assay type: subcellular; details: dose 16.0 µg/ml
Cell membrane [23] = assay: Induction of cell membrane disruption in Staphylococcus aureus ATCC43300 assessed as fold increase in DNA leakage at 16 ug/ml; assay type: subcellular; details: dose 16.0 µg/ml

In the case of CCn1cc(C(=O)O)c(=O)c2cc(F)c(N3CCNCC3)cc21 [NORFLOXACIN], the “fold change (FC)” value (Staphylococcus aureus [1]) is reported as 256.

Compound CC(=O)c1c(OCC(=O)NCCN(C)C)c2c(c3c1OC(C)(CCC=C(C)C)C=C3)OC(C)(CCC=C(C)C)C=C2 (stereo not given) has an MIC (Staphylococcus aureus [2]) of 4 µg/mL (≈ 7.08 µM), an MIC (Staphylococcus aureus [3]) of 2 µg/mL (≈ 3.54 µM) and an MIC (Staphylococcus aureus [4]) of 2 µg/mL (≈ 3.54 µM). For the same compound, the MIC (Bacillus subtilis) was 2 µg/mL (≈ 3.54 µM), the MIC (Enterococcus faecalis) was 1 µg/mL (≈ 1.77 µM) and the MIC [5] was 1 µg/mL (≈ 1.77 µM). It also gave an MIC (Klebsiella pneumoniae) of over 128 µg/mL, an MIC (Acinetobacter baumannii) of 128 µg/mL (≈ 227 µM) and an MIC (Escherichia coli) of over 128 µg/mL. For the same compound, the MIC (Pseudomonas aeruginosa) was over 128 µg/mL, the HC90 ([6]; rbc) was 205.8 µg/mL and the HC50 ([6]; red blood cells) was 112 µg/mL. For the same compound, the Activity (Staphylococcus aureus [7]) was “Time-dependent-effect”, the Activity (Staphylococcus aureus [8]) was “Dose-dependent-effect” and the “log(activity)” value (Staphylococcus aureus [9]) was 8.78. For the same compound, the Activity (Staphylococcus aureus [10]) was 99.9%, the Activity (Staphylococcus aureus [11]) was 100% and the Activity (Staphylococcus aureus [12]) was “inactive”. For the same compound, the “fold change (FC)” value (Staphylococcus aureus [13]) was 4, the Activity (Cell membrane [14]) was “Active” and the Activity (Cell membrane [15]) was “Active”. For the same compound, the fold change (FC) (Cell membrane [16]) was 4.7, the Activity (Cell membrane [17]) was “Dose-dependent-effect” and the Activity (Cell membrane [18]) was “Dose-dependent-effect”. The fold change (FC) (Cell membrane [19]) was 2.3, the Activity (Cell membrane [20]) was “Dose-dependent-effect” and the Activity (Cell membrane [21]) was “Dose-dependent-effect”. For the same compound, the fold change (FC) (Cell membrane [22]) was 6.3 and the fold change (FC) (Cell membrane [23]) was 6.7.
